Experimental findings from ChEMBL document CHEMBL3638956, “Tetrahydro-pyrazolo[1,5-a]pyrido-pyrimidines as antagonists of serotonin 5-HT6 receptors, methods for the production and use thereof” (2013) are described below.

Structures are written as SMILES.

Sequence of 5-hydroxytryptamine receptor 6 (P50406 whole entry): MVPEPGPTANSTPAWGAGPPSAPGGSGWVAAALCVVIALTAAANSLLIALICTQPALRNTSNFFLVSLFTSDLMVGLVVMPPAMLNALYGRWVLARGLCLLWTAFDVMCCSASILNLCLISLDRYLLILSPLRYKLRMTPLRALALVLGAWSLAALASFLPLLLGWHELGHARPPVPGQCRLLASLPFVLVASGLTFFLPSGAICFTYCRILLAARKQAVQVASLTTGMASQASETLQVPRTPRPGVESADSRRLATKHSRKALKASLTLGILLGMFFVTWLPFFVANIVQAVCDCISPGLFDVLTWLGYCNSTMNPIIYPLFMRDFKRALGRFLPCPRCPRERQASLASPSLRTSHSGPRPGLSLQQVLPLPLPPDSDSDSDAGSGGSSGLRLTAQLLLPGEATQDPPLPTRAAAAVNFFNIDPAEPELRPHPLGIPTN

This assay addresses 5-hydroxytryptamine receptor 6 (Homo sapiens, UniProt P50406). Briefly: Competitive Binding Assay: Activity test of serotonin 5-HT6 receptor antagonists of the general formulas 1, 2 in the setting of competitive binding to serotonin 5-HT6 receptors.
Consider `CSc1nn2c3c(c(C)nc2c1S(=O)(=O)c1ccccc1)CNCC3`, for which the IC50 (in general, the concentration at which inhibition is half-maximal) came out at 16.6 nM and the affinity corresponds to a Ki of 7.7 nM. For the compound `Cc1nn2c3c(cnc2c1S(=O)(=O)c1ccccc1)CNCC3`, the Ki (commonly the dissociation constant of the complex between target and ligand, obtained from inhibition or displacement) turned out to be 2.14 nM. `Cc1nn2c3c(cnc2c1S(=O)(=O)c1ccccc1)CN(C)CC3` had an IC50 of 13 nM.

For `CSc1nn2c3c(cnc2c1S(=O)(=O)c1ccccc1)CN(C)CC3`, the IC50 came to 76.9 nM and the Ki came to 35.7 nM.
